# Measurements published in patent US5135928A, “Triazolo derivatives and process for their preparation” (Egis Gyogyszergyar, priority 1989, dated 1992).
# Assays:
# rats = test: Antianginal effect (vasopressin-induced experimental coronaria insufficiency, height of wave T in ECG); type: in vivo; details: Rattus norvegicus, iv, 2 minutes prior to vasopressin i.v.; narcotised male rats 180-220 g
# Experimental: Male rats of 180-220 g body weight were narcotised with chloralese-urethane(70/700 mg/kg ip.). The ECG was registered with needle electrodes in standard II leading. The experimental coronaria insufficiency was induced with vasopressin (4 NE/kg i.v.). The height of wave T in ECG was measured before and after the administration of vasopressin in both the control and treated groups. Test compounds were administered intravenously 2 minutes prior to the treatment with vasopressin.
# mice = test: Hexobarbital narcosis on mice; type: in vivo; details: oral; for ED50: Mus musculus, 1 hour before Hexobarbital 40 mg/kg i.v., positive = sleeping time more than 2.5 times longer than control; for Therapeutical index: Hexobarbital narcosis
# Experimental: 1. Hexobarbital narcosis on mice
# Method: Kaergaard, Arch. Int. Pharmacodyn. 2, 170, (1967)
# Groups consisting of 6 mice are used for each dose. The animals are treated orally with the test compound (the control group receives a vehicle), whereby sleeping is induced 1 hour later by administering a 40 mg/kg i.v. dose of Hexobarbital both to the test and control groups.
# Animals which have a sleeping time more than 2.5 times longer than that of the control group are considered to show a positive reaction. ED50 values are calculated from the thus-transformed data.
smiles,measurement,setting,value
"CN1NC2(CCCC2)Nc2nc(N3CCOCC3)nn2C1=S [Example 48, 6-Methyl-2-morpholino-5,6,8,9-tetrahydro[1,2,4]-triazolo[1,5-d][1,2,4,6]tetrazepine-5(7H)-thione-8-spiro-1'-cyclopentane]",ED50,rats,1.35 mg/kg
"CCOC(=O)CCC1(C)Nc2nc(N3CCOCC3)nn2C(=S)N(C)N1 (centres unmarked) [Example 58, 6,8-Dimethyl-8-(ethoxycarbonyl-ethyl)-2-morpholino-5,6,8,9-tetrahydro[1,2,4]triazolo[1,5-d][1,2,4,6]-tetrazepine-5(7H)-thione]",ED50,mice,160 mg/kg
same,Therapeutical index,mice,12.5
"COC(=O)CC1(C)Nc2nc(SC)nn2C(=S)N(C)N1 (centres unmarked) [Example 57, 6,8-Dimethyl-8-methoxycarbonyl-methyl-2-methylthio-5,6,8,9tetrahydro[1,2,4]triazolo[1,5-d][1,2,4,6]-tetrazepine-5(7H)-thione]",ED50,rats,1.65 mg/kg
"CN(N=Cc1c(Cl)cccc1Cl)C(=S)n1nc(N2CCOCC2)nc1N [Example 5, 1-(5-Amino-3-morpholino-1H-1,2,4-triazol-1-yl)-N-methyl-N'-(2,6-dichlorobenzylidene)carbothiohydrazide]",ED50,mice,36 mg/kg
same,Therapeutical index,mice,27.8
"CC(Cc1ccccc1)NCCC(c1ccccc1)c1ccccc1 (centres unmarked) [Prenylamine, reference compound]",ED50,rats,6.5 mg/kg
"CN1NC2(CCCCCCCCCCC2)Nc2nc(N3CCOCC3)nn2C1=S [Example 53, 6-Methyl-2-morpholino-5,6,8,9-tetrahydro-1,2,4-triazolo[1,5-d][1,2,4,6]tetrazepine-5(7H)-thione-8-spiro-1'-cyclododecane]",ED50,rats,1 mg/kg
same,ED50,mice,41 mg/kg
same,Therapeutical index,mice,48.8
"CC1Nc2nc(N3CCOCC3)nn2C(=S)N(C)N1 (centres unmarked) [Example 41, 6,8-Dimethyl-2-morpholino-5,6,8,9-tetrahydro[1,2,4]-triazolo-[1,5-d][1,2,4,6]tetrazepine-5(7H)-thione]",ED50,mice,200 mg/kg
same,Therapeutical index,mice,10.0
"CSc1nc2n(n1)C(=S)N(C)NC1(CCCCC1)N2 [Example 47, 6-Methyl-2-methylthio-5,6,8,9-tetrahydro[1,2,4]-triazolo[1,5-d][1,2,4,6]tetrazepine-5(7H)-thione-8-spiro-1'-cyclohexane]",ED50,mice,200 mg/kg
same,Therapeutical index,mice,10.0
"CN(N=Cc1ccc(OCC(N)=O)cc1)C(=S)n1nc(N2CCOCC2)nc1N [Example 7, 1-(5-Amino-3-morpholino-1H-1,2,4-triazol-1-yl)-N-methyl-N'-(4-carbamoylmethoxybenzylidene)carbothiohydrazide]",ED50,mice,110 mg/kg
same,Therapeutical index,mice,9.1
"CCCC(C)(COC(N)=O)COC(N)=O [Meprobamate, reference compound]",ED50,mice,270 mg/kg
same,Therapeutical index,mice,4.1
"COc1cc(C=NN(C)C(=S)n2nc(SC)nc2N)ccc1O [Example 22, 1-(5-Amino-3-methylthio-1H-1,2,4-triazol-1-yl)-N-methyl-N'-(4-hydroxy-3-methoxybenzylidene)carbothiohydrazide]",ED50,mice,110 mg/kg
same,Therapeutical index,mice,5.1
